Columns and labels:
[1] = tested on: HLA class II molecules; details: cited from earlier work
[2] = tested on: advanced pancreatic and pulmonary cancer patients; details: cited from earlier work
[3] = tested on: locally advanced and metastatic pancreatic cancer; experiment: Survival analysis, TeloVac Phase III trial; assay type: in vivo, human; details: 1062 patients, 52 centres
Procedure: The TeloVac trial recruited 1062 patients in 52 centres throughout the UK. […] Importantly, biomarkers for an increased survival in response to the vaccine were identified in a subgroup of patients.
(§1) The TeloVac trial, was initiated in January 2007 comparing combination therapy with Gemcitabine and Capecitabine (GemCap) therapy with concurrent and sequential chemo-immunotherapy using GV1001 in locally advanced and metastatic pancreatic cancer.
(§2) After this, GV1001 was administered once monthly. GM-CSF was administered separately as an intradermal injection 10-15 minutes before all GV1001 injections at the approximately same site.

[4] = tested on: 26 cytokines in serum; experiment: Luminex multiplex inflammatory cytokine analysis of patient serum (TeloVac trial); assay type: in vivo, human
Procedure: as §1, §2
Cytokine Results: The Kruskal-Wallis comparison of Arm 2 and Arm 3 baseline (i.e. before treatment) with arm 2 week 7 (GemCap) with Arm 3 week 10 (GemCap and GV1001) serum samples are shown in table 1 below.
Paired analysis was carried out for: • Arm 2 patients at baseline and following 7 weeks of GemCap treatment. • Arm 3 patients at baseline and following 10 weeks of GemCap and GV1001 treatment.

Sequence: EARPALLTSRLRFIPK (listed as Homo sapiens) [GV1001, 16-mer peptide, fragment of the human telomerase enzyme]
- HLA binding [1]: binds multiple HLA class II molecules
- GV1001-specific T-cell responses, subjects [2]: > 50%
- toxicity [2]: without clinically important toxicity
- overall survival versus control group receiving chemotherapy [3]: no significant difference in overall survival
- anti-inflammatory response ([4]; TeloVac translational research): significant anti-inflammatory response
- regulation of serum levels of eotaxin or MIP1α ([4]; human, in vivo): did not appear that treatment with GV1001 could regulate
- change of serum cytokine levels, pre-treatment compared to post treatment ([4]; serum, paired analysis): this decrease was not evident
